From patent US8609836B2, “4-aryl-2-anilino-pyrimidines” (Janssen Pharmaceutica NV, priority 2008, dated 2013)

What was measured:
[1] = target: PLK4 (h) (Homo sapiens, UniProt O00444); experiment: PLK-4 human kinase inhibition, scintillation proximity assay (SPA); assay type: biochemical; details: read-out: PLK4 pIC50 (converted)
[2] = target: AuroraB (h) (Homo sapiens, UniProt Q96GD4); experiment: Aurora-B human kinase inhibition, SPA; assay type: biochemical; details: read-out: AuroraB pIC50 (converted)
Sequence of AuroraB (h) (Q96GD4 whole entry): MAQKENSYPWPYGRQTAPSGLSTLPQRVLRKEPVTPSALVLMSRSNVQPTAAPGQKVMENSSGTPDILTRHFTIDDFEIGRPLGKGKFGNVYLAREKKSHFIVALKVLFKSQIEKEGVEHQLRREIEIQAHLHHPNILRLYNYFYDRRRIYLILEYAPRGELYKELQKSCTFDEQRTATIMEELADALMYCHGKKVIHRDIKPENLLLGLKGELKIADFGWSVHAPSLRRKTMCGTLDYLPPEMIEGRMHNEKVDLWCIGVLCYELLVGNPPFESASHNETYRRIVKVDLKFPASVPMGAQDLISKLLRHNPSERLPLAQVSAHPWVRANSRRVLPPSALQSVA
Outline: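 SPA with biotinylated peptide (3 μM) in 60 mM Hepes pH 7.5, Mg/Mn 3 mM each, 0.5 μM ATP plus [γ-33P]ATP, AuroraB at 0.5 μg/ml. The reaction runs 60 min at room temperature and is stopped with EDTA and streptavidin PVT beads. 33P-substrate is read by scintillation imaging.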

[3] = target: GSK3β (h) (Homo sapiens, UniProt P49841); experiment: GSK-3β human kinase inhibition, SPA; assay type: biochemical; details: read-out: GSK3b pIC50 (converted)
Sequence of GSK3β (h) (P49841 whole entry): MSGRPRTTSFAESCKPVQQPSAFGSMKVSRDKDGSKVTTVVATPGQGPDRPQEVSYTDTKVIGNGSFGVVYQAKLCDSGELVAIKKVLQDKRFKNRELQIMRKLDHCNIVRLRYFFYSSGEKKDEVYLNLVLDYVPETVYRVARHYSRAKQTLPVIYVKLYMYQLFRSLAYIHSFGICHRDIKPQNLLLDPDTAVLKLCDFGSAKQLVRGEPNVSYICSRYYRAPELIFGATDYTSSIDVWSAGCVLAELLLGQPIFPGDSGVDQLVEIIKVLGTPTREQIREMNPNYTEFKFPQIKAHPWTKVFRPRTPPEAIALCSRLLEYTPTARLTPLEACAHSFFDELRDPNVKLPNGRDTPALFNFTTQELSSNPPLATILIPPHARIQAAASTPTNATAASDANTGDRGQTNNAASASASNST
Outline: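 Scintillation proximity assay: GSK3β (1 μg/ml) with 1 μM biotinylated peptide, 1 μM ATP plus [γ-33P]ATP in Tris pH 7.4, MgCl2, DTT. 60 min at room temperature, stopped with EDTA and streptavidin PVT beads; phosphorylation read by Leadseeker imaging.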

[4] = target: CDK1/CyclinB (h) (Homo sapiens, UniProt P06493); experiment: CDK1/CyclinB human kinase inhibition, Invitrogen's FRET assay (Z'lyte); assay type: biochemical; details: read-out: CDK1 pIC50 (converted)
Sequence of CDK1/CyclinB (h) (P06493 whole entry): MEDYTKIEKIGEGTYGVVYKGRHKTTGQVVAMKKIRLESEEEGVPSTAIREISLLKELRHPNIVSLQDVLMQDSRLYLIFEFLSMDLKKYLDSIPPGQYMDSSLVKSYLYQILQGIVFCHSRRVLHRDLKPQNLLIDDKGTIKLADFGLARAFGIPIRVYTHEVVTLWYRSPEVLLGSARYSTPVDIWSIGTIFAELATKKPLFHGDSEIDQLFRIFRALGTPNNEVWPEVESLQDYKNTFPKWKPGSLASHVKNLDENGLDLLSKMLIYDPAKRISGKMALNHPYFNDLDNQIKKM
Sequence of CDK1/CyclinB (h) (P14635 whole entry partner): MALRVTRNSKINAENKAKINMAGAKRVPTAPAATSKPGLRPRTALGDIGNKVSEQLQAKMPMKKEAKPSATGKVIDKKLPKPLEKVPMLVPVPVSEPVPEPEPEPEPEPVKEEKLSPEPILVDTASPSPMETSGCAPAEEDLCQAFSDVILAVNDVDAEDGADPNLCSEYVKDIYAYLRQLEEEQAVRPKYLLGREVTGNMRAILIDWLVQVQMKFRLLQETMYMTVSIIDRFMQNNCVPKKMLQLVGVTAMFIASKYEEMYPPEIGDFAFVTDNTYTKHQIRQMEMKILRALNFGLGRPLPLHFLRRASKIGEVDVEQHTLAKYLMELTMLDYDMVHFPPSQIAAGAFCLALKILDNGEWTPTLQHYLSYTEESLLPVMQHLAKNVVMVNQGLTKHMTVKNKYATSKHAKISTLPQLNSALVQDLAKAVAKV
Outline: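 Z'lyte FRET assay: human CDK1/CyclinB (0.2 μg/ml) with 2 μM Ser/Thr peptide 12 and 10 μM ATP in 50 mM Hepes pH 7.5, MgCl2, EGTA, Brij-35, 60 min at room temperature. Protease development 60 min, then emission ratio 460/538 nm read with excitation at 390 nm.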

[5] = target: CDK4/CyclinD1 (h) (Homo sapiens, UniProt P11802); experiment: CDK4/CyclinD1 human kinase inhibition, SPA with GST-pRb substrate; assay type: biochemical; details: read-out: CDK4 pIC50 (converted)
Sequence of CDK4/CyclinD1 (h) (P11802 whole entry): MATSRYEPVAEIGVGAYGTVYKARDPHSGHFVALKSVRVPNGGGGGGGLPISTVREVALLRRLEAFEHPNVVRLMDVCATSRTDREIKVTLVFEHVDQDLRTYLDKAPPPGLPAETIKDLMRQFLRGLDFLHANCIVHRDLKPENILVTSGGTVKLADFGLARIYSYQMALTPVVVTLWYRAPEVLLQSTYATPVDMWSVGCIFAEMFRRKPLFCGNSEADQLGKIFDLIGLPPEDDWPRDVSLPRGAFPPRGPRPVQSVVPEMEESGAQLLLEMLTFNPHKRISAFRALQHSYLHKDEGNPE
Sequence of CDK4/CyclinD1 (h) (P24385 whole entry partner): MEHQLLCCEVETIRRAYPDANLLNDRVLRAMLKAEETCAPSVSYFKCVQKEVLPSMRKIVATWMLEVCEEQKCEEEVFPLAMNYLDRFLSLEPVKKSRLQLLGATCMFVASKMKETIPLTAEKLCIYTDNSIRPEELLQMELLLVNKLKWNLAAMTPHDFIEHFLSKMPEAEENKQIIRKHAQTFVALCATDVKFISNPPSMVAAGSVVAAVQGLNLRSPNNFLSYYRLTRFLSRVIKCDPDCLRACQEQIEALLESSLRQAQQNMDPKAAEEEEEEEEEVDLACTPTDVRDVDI
Description: The in vitro inhibition of a panel of kinases was assessed using either the scintillation proximity assay (SPA) as described by Cook, N. D. et al., Advances in Experimental Medicine and Biology (1991), 36; p. 525-528.
In the SPA technology the activity of the kinase of interest is measured using an appropriate biotinylated substrate that is incubated with the aforementioned kinase protein in the presence of (^33P) radiolabeled ATP. (^33P) Phosphorylation of the substrate is subsequently measured through binding of the phosphorylated substrate to streptavidine coated beads that are based on the scintillant poly(vinyl toluene) (PVT-Beads). The scintillation intensity is detected by imaging on Leadseeker.
All kinases are pre-diluted to a 10× working concentration prior to addition into the assay. The composition of the dilution buffer for each kinase is detailed below.
In a final reaction volume of 30 μl, CDK4/CyclinD1 (h) (2.5 μg/ml) is incubated with 50 mM Hepes pH 7.5, 8 mM NaF, 20 mM MgCl2, 1 mM DTT, 40 μg/ml of substrate GST-pRb, 2 nM [γ-^33P-ATP] (6.0 μCi/ml). After incubation of 60 minutes at room temperature, the reaction is stopped by addition of 40 μL of stop solution containing 8.7 mM EDTA, 0.17% Triton X-100, 25 mg/ml Glutathion SPA Beads (GE-healthcare). The plate is centrifuged and read for Scintillation topcount analyzer.

[6] = target: PLK1 T210D (h) (Homo sapiens, UniProt P53350, T210D); experiment: PLK1 human kinase inhibition, SPA; assay type: biochemical; details: read-out: PLK1 pIC50 (converted)
Sequence of PLK1 T210D (h) (P53350 whole entry T210D): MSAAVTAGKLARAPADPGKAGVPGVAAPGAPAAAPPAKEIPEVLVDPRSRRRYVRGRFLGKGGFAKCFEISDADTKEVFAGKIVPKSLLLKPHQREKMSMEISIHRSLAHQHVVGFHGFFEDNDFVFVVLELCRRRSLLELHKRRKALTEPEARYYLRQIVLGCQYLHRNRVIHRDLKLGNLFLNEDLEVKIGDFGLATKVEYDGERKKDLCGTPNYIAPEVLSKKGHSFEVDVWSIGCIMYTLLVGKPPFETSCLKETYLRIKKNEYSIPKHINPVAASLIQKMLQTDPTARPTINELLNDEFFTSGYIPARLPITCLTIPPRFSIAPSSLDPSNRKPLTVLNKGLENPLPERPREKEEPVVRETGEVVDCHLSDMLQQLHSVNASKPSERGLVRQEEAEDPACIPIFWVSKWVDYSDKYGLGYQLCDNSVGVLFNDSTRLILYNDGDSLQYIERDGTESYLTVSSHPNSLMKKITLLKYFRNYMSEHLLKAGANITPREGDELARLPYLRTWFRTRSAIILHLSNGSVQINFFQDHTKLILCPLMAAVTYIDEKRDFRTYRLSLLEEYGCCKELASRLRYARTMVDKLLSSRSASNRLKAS
Outline: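 Radiometric SPA with PLK1 T210D (0.125 ng/ml) in 50 mM Hepes pH 8.0, 2 mM MnCl2, 1 mM DTT, 2 μM biotinylated peptide, 0.1 μM ATP plus 2 nM [γ-33P]ATP. 40 min at room temperature, EDTA stop. Phosphorylated substrate captured on streptavidin PVT beads, scintillation imaged.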

[7] = target: PLK2 (h) (Homo sapiens, UniProt Q9NYY3); experiment: PLK2 human kinase inhibition, SPA; assay type: biochemical; details: read-out: PLK2 pIC50 (converted)
Sequence of PLK2 (h) (Q9NYY3 whole entry): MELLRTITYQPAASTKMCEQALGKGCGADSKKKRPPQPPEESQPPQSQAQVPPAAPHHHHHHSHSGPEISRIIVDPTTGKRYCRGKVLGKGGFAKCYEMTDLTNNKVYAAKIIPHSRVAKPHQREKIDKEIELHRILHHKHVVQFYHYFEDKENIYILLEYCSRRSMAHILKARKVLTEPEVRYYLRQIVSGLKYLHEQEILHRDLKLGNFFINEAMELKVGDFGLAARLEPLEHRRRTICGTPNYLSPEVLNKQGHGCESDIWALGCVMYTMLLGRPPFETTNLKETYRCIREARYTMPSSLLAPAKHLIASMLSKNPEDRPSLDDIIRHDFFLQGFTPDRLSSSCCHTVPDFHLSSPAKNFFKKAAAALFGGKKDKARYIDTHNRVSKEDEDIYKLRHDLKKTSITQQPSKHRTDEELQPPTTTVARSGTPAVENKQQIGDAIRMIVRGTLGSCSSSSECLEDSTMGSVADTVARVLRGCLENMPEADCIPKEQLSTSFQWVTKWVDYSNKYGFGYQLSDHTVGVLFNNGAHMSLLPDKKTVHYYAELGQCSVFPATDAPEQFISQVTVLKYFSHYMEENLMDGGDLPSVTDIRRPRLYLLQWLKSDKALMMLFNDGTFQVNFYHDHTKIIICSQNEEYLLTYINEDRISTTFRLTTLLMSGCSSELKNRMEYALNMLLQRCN
Outline: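 SPA read on Leadseeker: PLK2 (30 μg/ml) with 2 μM biotinylated peptide, 0.1 μM ATP plus 2 nM [γ-33P]ATP in 50 mM Hepes pH 8.0, 2 mM MnCl2, 1 mM DTT. Reaction ran 20 min at room temperature, then EDTA stop and streptavidin PVT beads.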

[8] = target: PLK3 (h) (Homo sapiens, UniProt Q9H4B4); experiment: PLK3 human kinase inhibition, SPA; assay type: biochemical; details: read-out: PLK3 pIC50 (converted)
Sequence of PLK3 (h) (Q9H4B4 whole entry): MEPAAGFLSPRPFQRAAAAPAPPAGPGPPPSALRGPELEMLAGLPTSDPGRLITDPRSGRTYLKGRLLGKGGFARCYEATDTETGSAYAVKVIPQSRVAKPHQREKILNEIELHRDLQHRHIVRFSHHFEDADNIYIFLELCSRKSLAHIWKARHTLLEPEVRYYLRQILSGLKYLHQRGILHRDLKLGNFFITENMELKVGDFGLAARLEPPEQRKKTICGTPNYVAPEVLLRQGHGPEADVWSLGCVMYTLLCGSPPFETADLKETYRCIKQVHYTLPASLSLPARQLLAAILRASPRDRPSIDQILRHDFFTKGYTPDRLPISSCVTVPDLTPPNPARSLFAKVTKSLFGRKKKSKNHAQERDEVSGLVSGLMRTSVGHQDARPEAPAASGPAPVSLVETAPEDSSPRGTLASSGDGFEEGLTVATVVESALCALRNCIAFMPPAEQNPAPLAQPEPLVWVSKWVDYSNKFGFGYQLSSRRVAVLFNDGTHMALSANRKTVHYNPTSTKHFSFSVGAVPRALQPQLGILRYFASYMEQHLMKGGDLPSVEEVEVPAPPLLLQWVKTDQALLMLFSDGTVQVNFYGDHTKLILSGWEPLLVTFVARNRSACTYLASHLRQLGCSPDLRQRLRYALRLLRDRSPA
Outline: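 SPA: PLK3 (h) at 30 μg/ml with 2 μM biotinylated peptide, 0.1 μM ATP plus 2 nM [γ-33P]ATP in 50 mM Hepes pH 8.0, 2 mM MnCl2 and 1 mM DTT. Incubated 20 min at room temperature, then stopped with EDTA and streptavidin PVT beads. Scintillation imaged on Leadseeker.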

[9] = test system: HCT-116; experiment: Cellular proliferation assay (Alamar blue), HCT-116; assay type: cell-based; details: Homo sapiens, 10% FCS, 72 hours with compound, Alamar blue 4 h
Outline: (§1)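 Proliferation in 10% FCS over a 72 h compound treatment, read as viable cell number by Alamar blue fluorescence and calculated against untreated control cells. Dye time varied by line: 6 h U87-MG, 4 h HCT-116, 24 h A2780 and MDA-MB-231.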

[10] = test system: H1299; experiment: Cellular proliferation assay (Alamar blue), H1299; assay type: cell-based; details: Homo sapiens, NCI-H1299; 10% FCS; 72 hours with compound; Alamar blue 4 h
Description: (§2) […] functional properties of these compounds were tested in cellular proliferation assays on a panel of different cell lines in the presence of 10% FCS serum (37° C. and 5% (v/v) CO2). In a first step these cells were seeded and incubated for 24 hours in the absence of compound. In the second step the cells were incubated for 72 hours with the compounds to be tested for 72 hours. The viable cell number was finally assessed in a standard Alamar blue cell viability assay.
(§3) The viable cell number was assessed by incubation for either 4 h (HCT-116, H1299) 6 h (U87-MG) or 24 h (A2780, MDA-MB-231) with Alamar blue (Resazurin 9 μg/ml, K-Ferrocyanide 90 μM, K-Ferricyanide 90 μM) and the converted fluorescent product was quantified on a fluorescent plate reader (544 nm/590 nm). Effect of the compounds is calculated as of on control cells.

[11] = test system: MDA-MB-231; experiment: Cellular proliferation assay (Alamar blue), MDA-MB-231; assay type: cell-based; details: Homo sapiens, 10% FCS, 72 hours with compound, Alamar blue 24 h, read-out: MDA/MB231 (cellular proliferation assay, Table 4) (converted)
Description: as §2, §3

[12] = test system: U87-MG; experiment: Cellular proliferation assay (Alamar blue), U87-MG; assay type: cell-based; details: Homo sapiens, U-87 MG; 10% FCS; 72 hours with compound; Alamar blue 6 h; read-out: U87-MG (cellular proliferation assay, Table 4) (converted)
Outline: as §1

[13] = test system: A2780; experiment: Cellular proliferation assay (Alamar blue), A2780; assay type: cell-based; details: Homo sapiens, 10% FCS, 72 hours with compound, Alamar blue 24 h, read-out: A2780 (cellular proliferation assay, Table 4) (converted)
Outline: as §1

Sequence of PLK4 (h) (O00444 whole entry): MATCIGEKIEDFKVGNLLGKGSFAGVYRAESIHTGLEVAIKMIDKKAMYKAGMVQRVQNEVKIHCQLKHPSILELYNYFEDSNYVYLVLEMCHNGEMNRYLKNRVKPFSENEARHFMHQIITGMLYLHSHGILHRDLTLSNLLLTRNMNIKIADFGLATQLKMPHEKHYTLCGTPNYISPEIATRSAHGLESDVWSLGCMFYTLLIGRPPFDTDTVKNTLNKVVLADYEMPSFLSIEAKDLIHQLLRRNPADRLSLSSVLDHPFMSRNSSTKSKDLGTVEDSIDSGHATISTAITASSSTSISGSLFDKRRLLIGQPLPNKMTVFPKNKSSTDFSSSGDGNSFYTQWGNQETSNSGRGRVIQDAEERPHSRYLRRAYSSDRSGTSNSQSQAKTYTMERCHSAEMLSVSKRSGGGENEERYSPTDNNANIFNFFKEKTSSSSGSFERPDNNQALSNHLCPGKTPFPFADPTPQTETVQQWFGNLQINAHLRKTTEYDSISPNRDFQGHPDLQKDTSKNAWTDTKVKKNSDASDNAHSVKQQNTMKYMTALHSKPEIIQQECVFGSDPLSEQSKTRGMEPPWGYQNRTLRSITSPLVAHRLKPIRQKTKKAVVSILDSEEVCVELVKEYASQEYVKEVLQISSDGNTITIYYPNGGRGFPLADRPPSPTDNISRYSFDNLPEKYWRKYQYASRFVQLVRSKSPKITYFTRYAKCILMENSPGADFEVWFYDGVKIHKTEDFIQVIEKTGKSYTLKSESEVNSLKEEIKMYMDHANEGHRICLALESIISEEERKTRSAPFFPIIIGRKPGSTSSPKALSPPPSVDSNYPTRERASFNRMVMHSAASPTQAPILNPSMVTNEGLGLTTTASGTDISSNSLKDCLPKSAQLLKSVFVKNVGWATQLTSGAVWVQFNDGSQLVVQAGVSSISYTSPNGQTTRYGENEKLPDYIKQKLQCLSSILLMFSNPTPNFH

| Compound | IC50 [1] | IC50 [2] | IC50 [5] | IC50 [6] | IC50 [7] | IC50 [8] | IC50 [9] | IC50 [10] | IC50 [11] | IC50 [12] | IC50 [13] | IC50 [3] | IC50 [4] |
| --- | --- | --- | --- | --- | --- | --- | --- | --- | --- | --- | --- | --- | --- |
| COc1ccc2cc1CNCCCNC(=O)C1CCN(CC1)Cc1cc(ccc1N1CCOCC1)Nc1nccc-2n1 [Compound 3] | 0.0871 µM | 1.55 µM | > 10 µM | > 10 µM | > 10 µM | > 10 µM | > 10 µM | > 10 µM | > 10 µM | – | – | > 10 µM | > 10 µM |
| COc1ccc2cc1CNCCCNC(=O)CN1CCN(CC1)Cc1cc(ccc1N1CCOCC1)Nc1nccc-2n1 [Compound 13] | 0.49 µM | 4.17 µM | > 10 µM | > 10 µM | > 10 µM | > 10 µM | > 10 µM | > 10 µM | > 10 µM | – | – | > 10 µM | > 10 µM |
| CN1CCN(Cc2cc3cc(c2)Nc2nccc(n2)-c2cccc(c2)CNC(=O)[C@@H]2CCCN2C3)CC1 [Compound 28] | – | > 10 µM | 1.66 µM | > 10 µM | > 10 µM | > 10 µM | 0.363 µM | 2.24 µM | 1.62 µM | 0.158 µM | 0.55 µM | 0.112 µM | 0.603 µM |

The next lines start with results.

| IC50 [1] | IC50 [2] | IC50 [5] | IC50 [6] | IC50 [7] | IC50 [8] | IC50 [9] | IC50 [10] | IC50 [11] | IC50 [12] | IC50 [13] | Compound | IC50 [3] | IC50 [4] |
| --- | --- | --- | --- | --- | --- | --- | --- | --- | --- | --- | --- | --- | --- |
| > 10 µM | > 10 µM | > 10 µM | > 10 µM | > 10 µM | > 10 µM | 8.71 µM | > 10 µM | > 10 µM | 6.61 µM | > 10 µM | O=C1NCc2cccc(c2)-c2ccnc(n2)Nc2cccc(c2)CN2CCC[C@@H]12 [Compound 53] | 0.126 µM | – |
| 1.7 µM | > 10 µM | > 10 µM | > 10 µM | > 10 µM | > 10 µM | 5.13 µM | > 10 µM | 6.76 µM | – | – | O=C1NCCNCc2ccc(cc2)-c2ccnc(n2)Nc2ccc(N3CCOCC3)c(c2)CN2CCC1CC2 [Compound 71] | > 10 µM | 9.77 µM |
| 0.692 µM | > 10 µM | > 10 µM | > 10 µM | > 10 µM | > 10 µM | > 10 µM | > 10 µM | > 10 µM | – | – | O=C1CN2CCN(CC2)Cc2cc(ccc2N2CCOCC2)Nc2nccc(n2)-c2ccc(cc2)CNCCN1 [Compound 125] | > 10 µM | > 10 µM |
| 1.51 µM | > 10 µM | > 10 µM | > 10 µM | > 3.02 µM | > 10 µM | 1.95 µM | > 10 µM | > 10 µM | 8.91 µM | > 10 µM | COc1cc2cc(c1)Nc1nccc(n1)-c1ccc(cc1)CN(C)CCCNC(=O)CN1CCN(CC1)C2 [Compound 133] | – | > 10 µM |
